# According to publication PMC6099547, “Expression, Purification, and Characterization of a Novel Hybrid Peptide with Potent Antibacterial Activity” (Molecules : A Journal of Synthetic Chemistry and Natural …, 2018):
# Marks after values point to notes of the source that are not given here. Where a SMILES comes first, the peptide text is derived from it.
# What was measured:
# E. coli CVCC245 = type: cell-based, Escherichia coli; conditions: CVCC245, 12 h
# Protocol: (§1) CVCC1599 as indicator strains. […] Each assay was performed in triplicate.
# S. aureus ATCC 25923 = type: cell-based, Staphylococcus aureus; conditions: ATCC 25923, 12 h
# Protocol: as §1
# L. mono. CVCC1599 = type: cell-based, Listeria monocytogenes; conditions: 12 h
# Protocol: as §1
# sheep erythrocytes = assay: Hemolytic assay; type: cell-based; conditions: red cells of sheep
# Protocol: Peptide concentrations that caused 50% hemolysis of sheep erythrocytes at 540 nm were measured to evaluate the hemolytic activities. Sheep erythrocytes with 10 mM phosphate buffered saline (PBS)/0.1% (v/v) Triton X-100 (Sigma, San Francisco, CA, USA) added were used as negative/positive control. Assays were performed in triplicate.
# pepsin = assay: Protease susceptibility, residual activity by inhibition zone assay; type: in vitro ADME; conditions: pepsin 10 μg/mL in PBS, agar diffusion inhibition zone; for Functional activity maintained under pepsin: peptide 1 μM in PBS, control without enzyme, S. aureus ATCC25923, three replicates
# Protocol: as §1
# proteinase K = proteinase K (Parengyodontium album, UniProt P06873); assay: as above; type: in vitro ADME; conditions: proteinase K 10 μg/mL in PBS, peptide 1 μM in PBS; control without enzyme; agar diffusion inhibition zone, S. aureus ATCC25923; three replicates
# Protocol: as §1
# trypsin = assay: as above; conditions: trypsin 10 μg/mL in PBS, peptide 1 μM in PBS; control without enzyme; agar diffusion inhibition zone, S. aureus ATCC25923; three replicates
# Protocol: Antibacterial activity of recombinant C–L was assayed by the agar diffusion method with S. aureus ATCC25923 as indicator strain. […] The same volume of PBS was used as negative control. The inhibition zone was measured after incubation overnight at 37 °C. […] CVCC1599 as indicator strains. The indicator strains were cultured at 37 °C to logarithmic stage and diluted to the concentration of 1 × 10^6 cfu/mL with Mueller–Hinton (MH) broth medium, and 180 µL culture was dispensed into per well of 96-well microtiter plate. Peptides were then serially diluted, and dilutions were added into the wells (final volume 200 µL). Each assay was performed in triplicate. After incubation at 37 °C for 12 h, the plate was assessed by measuring the OD600. The MIC was defined as the lowest concentration (at which there was no change in optical density) required to prevent the growth of bacteria.
# The stability of the purified recombinant C–L and synthesized C–L at different pH values (2.0–11.0) and different temperatures (37, 50, 60, 70, 80, 90, and 100 °C for 20 min) was evaluated. […] Stability of recombinant C–L and synthesized C–L was assessed by the agar diffusion method as described above and the inhibition zones were recorded. S. aureus ATCC25923 was used as the indicator strain and the inhibition zones were recorded.
# Chain of proteinase K (P06873 106-384): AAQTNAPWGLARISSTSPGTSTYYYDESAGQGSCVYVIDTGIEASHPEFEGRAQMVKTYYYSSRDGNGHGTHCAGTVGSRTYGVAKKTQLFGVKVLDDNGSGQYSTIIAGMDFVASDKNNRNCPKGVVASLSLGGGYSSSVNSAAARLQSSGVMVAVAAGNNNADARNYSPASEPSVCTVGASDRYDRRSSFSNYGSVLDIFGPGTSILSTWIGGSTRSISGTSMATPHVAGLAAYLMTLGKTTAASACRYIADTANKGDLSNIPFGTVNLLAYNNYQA
Compound,MIC (E. coli CVCC245),MIC (S. aureus ATCC 25923),MIC (L. mono. CVCC1599),HC50 (hemolytic activity) (sheep erythrocytes),Functional activity maintained under pepsin (pepsin),Functional activity maintained under proteinase K (proteinase K),Functional activity maintained under trypsin (trypsin),Reduction in activity when exposed to pepsin (pepsin; peptide 1 μM)
CC[C@H](C)[C@H](NC(=O)[C@H](CCCCN)NC(=O)[C@H](CCCCN)NC(=O)[C@H](Cc1ccccc1)NC(=O)[C@H](CC(C)C)NC(=O)[C@H](CCCCN)NC(=O)[C@H](Cc1c[nH]c2ccccc12)NC(=O)[C@@H](N)CCCCN)C(=O)N[C@@H](Cc1ccccc1)C(=O)N[C@@H](CCCCN)C(=O)N[C@@H](CCCNC(=N)N)C(=O)N[C@H](C(=O)N[C@H](C(=O)N[C@@H](CCC(N)=O)C(=O)N[C@@H](CCCNC(=N)N)C(=O)N[C@H](C(=O)N[C@@H](CCCCN)C(=O)N[C@@H](CC(=O)O)C(=O)N[C@@H](Cc1ccccc1)C(=O)N[C@@H](CC(C)C)C(=O)N[C@@H](CCCNC(=N)N)C(=O)N[C@@H](CC(N)=O)C(=O)O)[C@@H](C)CC)C(C)C)[C@@H](C)CC [Recombinant C–L] (H-KWKLFKKIFKRIVQRIKDFLRN-OH),7.2 ± 0.14 ^b μg/mL,2.2 ± 0.05 ^c μg/mL,2.1 ± 0.03 ^c μg/mL,221 ± 3.45 ^a μg/mL,almost the same stability,almost the same stability,almost the same stability,–
CC[C@H](C)[C@H](NC(=O)[C@H](CCCCN)NC(=O)[C@H](CCCCN)NC(=O)[C@H](Cc1ccccc1)NC(=O)[C@H](CC(C)C)NC(=O)[C@H](CCCCN)NC(=O)[C@H](Cc1c[nH]c2ccccc12)NC(=O)[C@@H](N)CCCCN)C(=O)N[C@@H](Cc1ccccc1)C(=O)N[C@@H](CCCCN)C(=O)N[C@@H](CCCNC(=N)N)C(=O)N[C@H](C(=O)N[C@H](C(=O)N[C@@H](CCC(N)=O)C(=O)N[C@@H](CCCNC(=N)N)C(=O)N[C@H](C(=O)N[C@@H](CCCCN)C(=O)N[C@@H](CC(=O)O)C(=O)N[C@@H](Cc1ccccc1)C(=O)N[C@@H](CC(C)C)C(=O)N[C@@H](CCCNC(=N)N)C(=O)N[C@@H](CC(N)=O)C(=O)O)[C@@H](C)CC)C(C)C)[C@@H](C)CC [Synthesized C–L] (H-KWKLFKKIFKRIVQRIKDFLRN-OH),7.0 ± 0.21 ^b μg/mL,2.0 ± 0.02 ^c μg/mL,2.2 ± 0.05 ^c μg/mL,219 ± 2.98 ^a μg/mL,maintained a portion of functional activity,maintained a portion of functional activity,maintained a portion of functional activity,–
"CC[C@H](C)[C@H](NC(=O)[C@H](CCCCN)NC(=O)[C@H](CCCCN)NC(=O)[C@H](Cc1ccccc1)NC(=O)[C@H](CC(C)C)NC(=O)[C@H](CCCCN)NC(=O)[C@H](Cc1c[nH]c2ccccc12)NC(=O)[C@@H](N)CCCCN)C(=O)N[C@@H](Cc1ccccc1)C(=O)N[C@@H](CCCCN)C(=O)N[C@@H](CCCNC(=N)N)C(=O)N[C@H](C(=O)N[C@H](C(=O)N[C@@H](CCC(N)=O)C(=O)N[C@@H](CCCNC(=N)N)C(=O)N[C@H](C(=O)N[C@@H](CCCCN)C(=O)N[C@@H](CC(=O)O)C(=O)N[C@@H](Cc1ccccc1)C(=O)N[C@@H](CC(C)C)C(=O)N[C@@H](CCCNC(=N)N)C(=O)N[C@@H](CC(N)=O)C(=O)O)[C@@H](C)CC)C(C)C)[C@@H](C)CC [C–L, cecropin A (1–8)–LL37 (17–30)] (H-KWKLFKKIFKRIVQRIKDFLRN-OH)",–,–,–,–,over 50%,over 50%,over 50%,nearly half reduction in activity
